Data as given in PubChem BioAssay (NCI).
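Method: 48-hour compound exposure of cells in 96-well plates, five concentrations, linear interpolation of endpoints. TGI denotes the concentration required for complete inhibition of growth.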

Tested on: M14 melanoma
Assay: DTP human tumour cell line panel, 48 h

SMILES	TGI
COn1cc(CO)c2ccccc21	> 100 µM
COc1cc2nc(-c3c(F)cccc3F)n(Cc3c(F)cccc3F)c2cc1Cc1c(F)cccc1F	> 100 µM
O=C(/C=C1\C[C@H]2C=Nc3ccccc3C(=O)N2C1)NCCCCCNC(=O)/C=C1\C[C@H]2C=Nc3ccccc3C(=O)N2C1	12.1 µM
CC[P+](C#Cc1ccccc1)(c1ccccc1)c1ccccc1	3.56 µM
CC(C)Cc1c(C#N)c(C#N)c(N)n1Cc1ccccc1	> 100 µM
NS(=O)(=O)c1nnc(NSc2ccc([N+](=O)[O-])cc2)s1	> 100 µM
CC(C)(C)c1ccc2c(c1)OCc1n[nH]c(n1)COc1cc(C(C)(C)C)ccc1OCCOCCO2	13.5 µM
O=C(CN=C(CN(c1ccccc1)c1ccccc1)Oc1c(Cl)cc(Cl)cc1Cl)n1cnc2ccccc21	> 100 µM
COC(=O)c1sc2ncc3c(c2c1N)CC(C)CC3 (stereo not given)	> 100 µM
Cc1cccc(NC(Nc2cccc(C)c2)=C(C(Cl)=C(Cl)Cl)[N+](=O)[O-])c1	> 52 µM
CC1=CCC[C@H]2[C@](C)(CC3=CC(=O)C4SCCSC4C3=O)[C@@H](C)CC[C@]12C (stereo not given in full)	29.8 µM
C/C(=N\Nc1nc2ccccc2s1)c1cccnn1	88.7 µM
COC(=O)C1=C(C(=O)OC)C2(C)CCC(=O)C1O2 (stereo not given)	> 10 µM
Nc1n[nH]c2ccccc12	> 100 µM
COC(=O)[C@H]1C=C[C@H](OC2OC(COC(C)=O)C(OC(C)=O)C(OC(C)=O)C2OC(C)=O)n2c(=O)n(-c3ccccc3)c(=O)n21 (stereo not given in full)	9.64 µM
N/C(CSCCSC/C(N)=N/O)=N\O	> 100 µM

Tested on: MDA-N
Assay: DTP human tumour cell line panel, 48 h

SMILES	TGI
CC(O)(C(=O)N(O)c1ccc(Cl)cc1)c1ccc(Cl)cc1 (stereo not given)	> 100 µM
CC1(C)[C@@H]2C[C@H]1c1cnc(-c3ccccn3)cc1[C@H]2C(O)[C@@H]1c2cc(-c3ccccn3)ncc2[C@H]2C[C@@H]1C2(C)C (stereo not given in full)	11 µM
CC1(C)OC(CCO)CN1C(=O)OCc1ccccc1 (stereo not given)	> 100 µM
COc1ccc(N2C(=O)C3c4[nH]c5ccccc5c4C4C(C)CCCC4C3C2=O)cc1 (stereo not given)	18.3 µM
O=c1c(Cc2ccccc2)c(-c2ccccc2)[nH]n1C1=NCCN1	> 100 µM
CCOC(=O)Cc1nn2c(=O)cc(C)nc2s1	> 100 µM
CCOC1NC(=O)c2ccccc21 (stereo not given)	> 100 µM
CCN(C(=O)N[C@H](C(=O)N[C@@H](C)C(=O)OC)C(C)C)c1ccccc1	> 100 µM
CCOC(=O)c1ccc(C(=O)/C(C(=O)OC(C)(C)C)=C2\CCCN2C)n1C	> 100 µM
O=CN(O)CC(=O)O	> 100 µM
OCC1OC(O[C@H]2CN3[C@H](O)[C@@H](O)[C@H](O)[C@H]3C2O)C(O)C(O)C1O (stereo not given in full)	> 100 µM
CC1OC(n2cc(F)c(=O)[nH]c2=O)C(O[Si](C)(C)C(C)(C)C)C1O[Si](C)(C)C(C)(C)C (stereo not given)	29.3 µM
O=S1(=O)c2ccccc2NC(=S)N1c1ccccc1	> 80.9 µM
COC(=O)C(CCSC)NC(=O)CSc1nnc(COc2ccc(Cl)cc2)n1-c1ccccc1 (stereo not given)	34.1 µM
c1ccc(-c2ccc(N=NN3CCCC3)cc2)cc1	> 100 µM
COn1cc(CO)c2ccccc21	> 100 µM

SMILES	TGI
COc1cc2nc(-c3c(F)cccc3F)n(Cc3c(F)cccc3F)c2cc1Cc1c(F)cccc1F	> 100 µM
O=C(/C=C1\C[C@H]2C=Nc3ccccc3C(=O)N2C1)NCCCCCNC(=O)/C=C1\C[C@H]2C=Nc3ccccc3C(=O)N2C1	21.5 µM
CC[P+](C#Cc1ccccc1)(c1ccccc1)c1ccccc1	3.44 µM
CC(C)Cc1c(C#N)c(C#N)c(N)n1Cc1ccccc1	> 100 µM
NS(=O)(=O)c1nnc(NSc2ccc([N+](=O)[O-])cc2)s1	> 100 µM
CC(C)(C)c1ccc2c(c1)OCc1n[nH]c(n1)COc1cc(C(C)(C)C)ccc1OCCOCCO2	12.3 µM
O=C(CN=C(CN(c1ccccc1)c1ccccc1)Oc1c(Cl)cc(Cl)cc1Cl)n1cnc2ccccc21	> 100 µM
COC(=O)c1sc2ncc3c(c2c1N)CC(C)CC3 (stereo not given)	> 100 µM
Cc1cccc(NC(Nc2cccc(C)c2)=C(C(Cl)=C(Cl)Cl)[N+](=O)[O-])c1	> 35.1 µM
CC1=CCC[C@H]2[C@](C)(CC3=CC(=O)C4SCCSC4C3=O)[C@@H](C)CC[C@]12C (stereo not given in full)	25.9 µM
C/C(=N\Nc1nc2ccccc2s1)c1cccnn1	> 100 µM
COC(=O)C1=C(C(=O)OC)C2(C)CCC(=O)C1O2 (stereo not given)	> 10 µM
Nc1n[nH]c2ccccc12	> 100 µM
COC(=O)[C@H]1C=C[C@H](OC2OC(COC(C)=O)C(OC(C)=O)C(OC(C)=O)C2OC(C)=O)n2c(=O)n(-c3ccccc3)c(=O)n21 (stereo not given in full)	18.5 µM
N/C(CSCCSC/C(N)=N/O)=N\O	> 100 µM

Tested on: OVCAR-3 ovarian
Assay: DTP human tumour cell line panel, 48 h

SMILES	TGI
CC(O)(C(=O)N(O)c1ccc(Cl)cc1)c1ccc(Cl)cc1 (stereo not given)	72.8 µM
CC1(C)[C@@H]2C[C@H]1c1cnc(-c3ccccn3)cc1[C@H]2C(O)[C@@H]1c2cc(-c3ccccn3)ncc2[C@H]2C[C@@H]1C2(C)C (stereo not given in full)	1.77 µM
CC1(C)OC(CCO)CN1C(=O)OCc1ccccc1 (stereo not given)	> 100 µM
COc1ccc(N2C(=O)C3c4[nH]c5ccccc5c4C4C(C)CCCC4C3C2=O)cc1 (stereo not given)	> 100 µM
O=c1c(Cc2ccccc2)c(-c2ccccc2)[nH]n1C1=NCCN1	> 100 µM
CCOC(=O)Cc1nn2c(=O)cc(C)nc2s1	> 100 µM
CCOC1NC(=O)c2ccccc21 (stereo not given)	> 100 µM
CCN(C(=O)N[C@H](C(=O)N[C@@H](C)C(=O)OC)C(C)C)c1ccccc1	> 100 µM
CCOC(=O)c1ccc(C(=O)/C(C(=O)OC(C)(C)C)=C2\CCCN2C)n1C	> 100 µM
O=CN(O)CC(=O)O	> 100 µM
OCC1OC(O[C@H]2CN3[C@H](O)[C@@H](O)[C@H](O)[C@H]3C2O)C(O)C(O)C1O (stereo not given in full)	> 100 µM
CC1OC(n2cc(F)c(=O)[nH]c2=O)C(O[Si](C)(C)C(C)(C)C)C1O[Si](C)(C)C(C)(C)C (stereo not given)	37.3 µM
O=S1(=O)c2ccccc2NC(=S)N1c1ccccc1	> 100 µM
COC(=O)C(CCSC)NC(=O)CSc1nnc(COc2ccc(Cl)cc2)n1-c1ccccc1 (stereo not given)	5.37 µM
c1ccc(-c2ccc(N=NN3CCCC3)cc2)cc1	> 100 µM
COn1cc(CO)c2ccccc21	> 100 µM

SMILES	TGI
COc1cc2nc(-c3c(F)cccc3F)n(Cc3c(F)cccc3F)c2cc1Cc1c(F)cccc1F	> 100 µM
O=C(/C=C1\C[C@H]2C=Nc3ccccc3C(=O)N2C1)NCCCCCNC(=O)/C=C1\C[C@H]2C=Nc3ccccc3C(=O)N2C1	14.2 µM
CC[P+](C#Cc1ccccc1)(c1ccccc1)c1ccccc1	4.55 µM
CC(C)Cc1c(C#N)c(C#N)c(N)n1Cc1ccccc1	> 100 µM
NS(=O)(=O)c1nnc(NSc2ccc([N+](=O)[O-])cc2)s1	> 100 µM
CC(C)(C)c1ccc2c(c1)OCc1n[nH]c(n1)COc1cc(C(C)(C)C)ccc1OCCOCCO2	7.47 µM
O=C(CN=C(CN(c1ccccc1)c1ccccc1)Oc1c(Cl)cc(Cl)cc1Cl)n1cnc2ccccc21	> 100 µM
COC(=O)c1sc2ncc3c(c2c1N)CC(C)CC3 (stereo not given)	> 100 µM
Cc1cccc(NC(Nc2cccc(C)c2)=C(C(Cl)=C(Cl)Cl)[N+](=O)[O-])c1	44.6 µM
CC1=CCC[C@H]2[C@](C)(CC3=CC(=O)C4SCCSC4C3=O)[C@@H](C)CC[C@]12C (stereo not given in full)	48.4 µM
C/C(=N\Nc1nc2ccccc2s1)c1cccnn1	> 100 µM
COC(=O)C1=C(C(=O)OC)C2(C)CCC(=O)C1O2 (stereo not given)	> 10 µM
Nc1n[nH]c2ccccc12	> 100 µM
COC(=O)[C@H]1C=C[C@H](OC2OC(COC(C)=O)C(OC(C)=O)C(OC(C)=O)C2OC(C)=O)n2c(=O)n(-c3ccccc3)c(=O)n21 (stereo not given in full)	11.3 µM
N/C(CSCCSC/C(N)=N/O)=N\O	> 100 µM

Tested on: RPMI-8226 leukemia
Assay: DTP human tumour cell line panel, 48 h

SMILES	TGI
CC(O)(C(=O)N(O)c1ccc(Cl)cc1)c1ccc(Cl)cc1 (stereo not given)	37.3 µM
CC1(C)[C@@H]2C[C@H]1c1cnc(-c3ccccn3)cc1[C@H]2C(O)[C@@H]1c2cc(-c3ccccn3)ncc2[C@H]2C[C@@H]1C2(C)C (stereo not given in full)	1.93 µM
CC1(C)OC(CCO)CN1C(=O)OCc1ccccc1 (stereo not given)	> 100 µM
COc1ccc(N2C(=O)C3c4[nH]c5ccccc5c4C4C(C)CCCC4C3C2=O)cc1 (stereo not given)	> 100 µM
O=c1c(Cc2ccccc2)c(-c2ccccc2)[nH]n1C1=NCCN1	> 100 µM
CCOC(=O)Cc1nn2c(=O)cc(C)nc2s1	> 100 µM
CCOC1NC(=O)c2ccccc21 (stereo not given)	> 100 µM
